Data from ChEMBL document CHEMBL1201862, “PubChem BioAssay data set” (2004).
Calls of active or inactive are those of the source.

Columns and labels:
[1] = target: T1, Replicative DNA helicase DnaB (Mycobacterium tuberculosis, UniProt P9WMR3); test: DnaB intein splicing inhibitors, dose response, biochemical, cell-free fluorescence (AID 449749); assay type: functional
T1 sequence (P9WMR3 whole entry): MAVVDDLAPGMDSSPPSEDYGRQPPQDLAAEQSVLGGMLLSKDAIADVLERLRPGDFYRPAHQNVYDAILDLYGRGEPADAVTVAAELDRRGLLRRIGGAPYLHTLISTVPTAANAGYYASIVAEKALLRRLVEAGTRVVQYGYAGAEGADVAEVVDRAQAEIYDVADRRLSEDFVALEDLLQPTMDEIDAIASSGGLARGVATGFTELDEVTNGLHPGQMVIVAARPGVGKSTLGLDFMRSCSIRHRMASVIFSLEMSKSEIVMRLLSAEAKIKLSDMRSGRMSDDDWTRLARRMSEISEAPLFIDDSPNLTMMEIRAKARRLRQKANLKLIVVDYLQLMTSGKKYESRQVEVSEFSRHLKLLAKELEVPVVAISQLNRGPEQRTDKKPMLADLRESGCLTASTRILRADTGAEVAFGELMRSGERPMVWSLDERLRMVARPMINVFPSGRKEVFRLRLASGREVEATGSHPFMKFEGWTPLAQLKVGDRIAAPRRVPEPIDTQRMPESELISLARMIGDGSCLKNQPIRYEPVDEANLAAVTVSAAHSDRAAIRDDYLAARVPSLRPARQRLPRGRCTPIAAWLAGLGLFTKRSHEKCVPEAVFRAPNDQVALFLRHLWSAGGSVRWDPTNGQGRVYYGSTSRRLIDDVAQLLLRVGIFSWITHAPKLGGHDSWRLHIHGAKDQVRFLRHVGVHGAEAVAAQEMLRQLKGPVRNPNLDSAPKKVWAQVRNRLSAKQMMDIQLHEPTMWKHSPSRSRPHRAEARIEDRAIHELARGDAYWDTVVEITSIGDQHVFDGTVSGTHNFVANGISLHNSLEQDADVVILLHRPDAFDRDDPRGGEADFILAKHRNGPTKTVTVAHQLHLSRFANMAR

Protein RecA = target: T2, Protein RecA (Mycobacterium tuberculosis, UniProt P9WHJ3); test: Fluorescence Cell-Free Homogeneous Dose Retest to Identify Inhibitors of RecA-Intein Splicing Activity. [Related pubchem assays (depositor defined):AID2097, AID2223, AID489010, AID492950]; assay type: functional
T2 sequence (P9WHJ3 whole entry): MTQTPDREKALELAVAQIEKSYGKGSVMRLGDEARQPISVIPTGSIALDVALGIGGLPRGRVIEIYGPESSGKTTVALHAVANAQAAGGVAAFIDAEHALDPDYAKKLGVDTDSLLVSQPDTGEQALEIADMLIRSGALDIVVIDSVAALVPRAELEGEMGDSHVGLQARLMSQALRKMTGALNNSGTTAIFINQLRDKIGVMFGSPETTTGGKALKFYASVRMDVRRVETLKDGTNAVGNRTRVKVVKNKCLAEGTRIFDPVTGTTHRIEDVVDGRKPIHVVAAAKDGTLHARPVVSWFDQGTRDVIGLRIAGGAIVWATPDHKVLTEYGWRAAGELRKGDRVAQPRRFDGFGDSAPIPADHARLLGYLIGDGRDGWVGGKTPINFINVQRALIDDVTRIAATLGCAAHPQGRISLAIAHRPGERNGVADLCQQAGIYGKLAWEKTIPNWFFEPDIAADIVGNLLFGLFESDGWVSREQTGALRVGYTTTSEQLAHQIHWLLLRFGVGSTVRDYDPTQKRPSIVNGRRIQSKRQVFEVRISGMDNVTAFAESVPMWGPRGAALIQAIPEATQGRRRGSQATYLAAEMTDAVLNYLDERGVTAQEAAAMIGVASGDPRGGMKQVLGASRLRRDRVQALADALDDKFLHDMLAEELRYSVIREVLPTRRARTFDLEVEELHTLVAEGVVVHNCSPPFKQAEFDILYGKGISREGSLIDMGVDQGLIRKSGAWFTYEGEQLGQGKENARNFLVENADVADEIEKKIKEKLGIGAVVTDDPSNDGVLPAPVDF

Paired box protein Pax-8 = Paired box protein Pax-8 (Homo sapiens, UniProt Q06710); test: inhibitors of PAX8-driven TPO luciferase reporter, dose response, RMG-I cells, cherry-pick (AID 687027); assay type: functional, cell-based;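 note: luciferase reporter driven by Pax8 target thyroperoxidase promoter measured by SteadyGlo luminescence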
[2] = PAX2 cell-based inhibition, dose response, selectivity assay for PAX8 inhibitor project, plate reader, dry powder samples (AID 743048); assay type: functional;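 note: HEK293 cells carrying a WT1 promoter luciferase reporter driven by expressed Pax2; potency is for inhibition of Pax2 driven reporter signal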
[3] = IOSE-T80 ovarian epithelial cell cytotoxicity, dose response, cytotoxicity control for PAX8 inhibitor project, plate reader, dry powder samples (AID 743045); assay type: functional, cell-based
[4] = NIH:OVCAR-3 ovarian cancer cell cytotoxicity, dose response, PAX8 inhibitor project, plate reader, dry powder samples (AID 743044); assay type: functional, cell-based
[5] = cytotoxicity in COV434 cells, dose response, cytotoxicity control for PAX8 inhibitor project, cell-based, plate reader, dry powder, SA7 (AID 743145); assay type: functional
[6] = cytotoxicity dependent on PAX8, dose response, cell-based, plate reader, dry powder (AID 743049); assay type: functional
Protein skinhead-1 = target: T3, Protein skinhead-1 (Caenorhabditis elegans, UniProt P34707); assay type: functional
T3 sequence (P34707 whole entry): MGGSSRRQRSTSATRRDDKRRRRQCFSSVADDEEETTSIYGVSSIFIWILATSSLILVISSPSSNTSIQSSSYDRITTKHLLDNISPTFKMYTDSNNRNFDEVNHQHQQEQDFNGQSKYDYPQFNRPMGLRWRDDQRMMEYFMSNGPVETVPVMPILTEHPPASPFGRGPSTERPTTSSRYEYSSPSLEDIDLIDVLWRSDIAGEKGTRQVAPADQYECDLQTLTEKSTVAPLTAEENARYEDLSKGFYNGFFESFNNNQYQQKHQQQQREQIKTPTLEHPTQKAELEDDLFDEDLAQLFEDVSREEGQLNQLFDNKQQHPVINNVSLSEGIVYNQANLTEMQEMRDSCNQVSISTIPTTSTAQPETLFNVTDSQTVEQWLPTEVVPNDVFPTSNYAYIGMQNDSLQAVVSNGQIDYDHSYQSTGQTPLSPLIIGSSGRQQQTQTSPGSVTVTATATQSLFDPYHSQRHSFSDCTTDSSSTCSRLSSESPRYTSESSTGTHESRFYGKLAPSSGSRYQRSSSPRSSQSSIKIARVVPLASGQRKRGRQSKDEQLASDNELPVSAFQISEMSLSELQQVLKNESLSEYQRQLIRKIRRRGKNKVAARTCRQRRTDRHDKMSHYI

[7] = Luminescence-based cell-based high throughput dose response assay to identify activators of the DAF-12 from the parasite S. stercoralis (ssDAF-12).; assay type: functional
[8] = target: T4, Oxysterols receptor LXR-beta (Homo sapiens, UniProt P55055); test: LXR agonists, Gal4 luciferase reporter, dose response, counter-screen for ssDAF-12 agonist project, cell-based, luminescence, HEK293, S. stercoralis campaign (AID 720737); assay type: functional; settings: read-out: IC50 (the source's name)
T4 sequence (P55055 whole entry): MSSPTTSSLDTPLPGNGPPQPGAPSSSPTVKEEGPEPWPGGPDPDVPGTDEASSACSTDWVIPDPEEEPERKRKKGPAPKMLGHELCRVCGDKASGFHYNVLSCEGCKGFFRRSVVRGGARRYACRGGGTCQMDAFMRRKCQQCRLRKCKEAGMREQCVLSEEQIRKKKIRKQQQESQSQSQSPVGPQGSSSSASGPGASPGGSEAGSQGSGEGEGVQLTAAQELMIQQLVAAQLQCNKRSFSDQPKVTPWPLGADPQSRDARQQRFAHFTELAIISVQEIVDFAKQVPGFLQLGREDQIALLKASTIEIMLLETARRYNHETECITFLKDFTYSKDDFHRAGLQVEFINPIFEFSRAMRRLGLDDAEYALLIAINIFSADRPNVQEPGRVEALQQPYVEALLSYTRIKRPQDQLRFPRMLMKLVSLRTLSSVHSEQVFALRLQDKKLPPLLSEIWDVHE

[9] = inhibitors of firefly luciferase expression or activity, dose response, H4 neuroglioma cells, luminescence (AID 1990); assay type: functional, cell-based
[10] = tested on: Streptococcus sp. 'group A'; test: growth inhibition of control SK(-) GAS strain, dose response, counter-screen for streptokinase expression inhibitor project, luminescence, kanamycin, BacTiterGlo, confirmation (AID 1900); assay type: functional, organism-based
[11] = Luminescence Cell-Based Dose Response HTS to Identify Inhibitors of 5'UTR Stem-Loop Driven Prion Protein mRNA Translation in H4 Neuroglioblastoma Cells. [Related pubchem assays: 1827 (Project Summary), 1813 (Primary HTS)]; assay type: functional
[12] = inhibitors of SNCA 5'UTR-driven reporter translation, confirmation, H4 neuroglioma cells, luminescence (AID 1988); assay type: functional, cell-based
Streptococcus = test: Group A Streptococcus viability loss, dose response, counter-screen for streptokinase expression inhibitor project, luminescence, BacTiterGlo (AID 1915); assay type: functional, organism-based;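 note: potency for reduction of bacterial viability or growth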
[13] = Luminescence Cell-Based Dose Retest to Confirm Inhibitors of Cancer Stem Cells. [Related pubchem assays (depositor defined):AID2717, AID2721]; assay type: functional; settings: Homo sapiens
Cytochrome P450 2C19 = Cytochrome P450 2C19 (Homo sapiens, UniProt P33261); test: Cytochrome panel assay with activity outcomes. Panel member name: p450-cyp2c19 Compounds with AC50 equal or less than 10 uM are considered active; assay type: functional; settings: read-out: AC50
[14] = Artemis endonuclease inhibitor potency, dose response, biochemical, fluorescence intensity (AID 720701); assay type: functional;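 note: Artemis endonuclease enzyme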
Cytochrome P450 2D6 = Cytochrome P450 2D6 (Homo sapiens, UniProt P10635);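 note: CYP2D6 member of a cytochrome P450 panel assay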
[15] = target: RNA-editing ligase 1, mitochondrial (Trypanosoma brucei brucei, UniProt P86926); test: TbREL1 ligase inhibitors, dose response, biochemical, fluorescence, Trypanosoma brucei (AID 1117295); assay type: functional
[16] = A Cell Based Secondary Assay To Explore Cytotoxicity of Compounds that Sensitize Mycobacterium Tuberculosis to Beta-Lactam Antibiotics.; assay type: functional
Kallikrein-7 = Kallikrein-7 (Homo sapiens, UniProt P49862); test: Fluorescence Intensity-based biochemical primary high throughput dose response assay to identify activators of kallikrein-7 (K7) zymogen.
Kallikrein-7, sequence (P49862 whole entry): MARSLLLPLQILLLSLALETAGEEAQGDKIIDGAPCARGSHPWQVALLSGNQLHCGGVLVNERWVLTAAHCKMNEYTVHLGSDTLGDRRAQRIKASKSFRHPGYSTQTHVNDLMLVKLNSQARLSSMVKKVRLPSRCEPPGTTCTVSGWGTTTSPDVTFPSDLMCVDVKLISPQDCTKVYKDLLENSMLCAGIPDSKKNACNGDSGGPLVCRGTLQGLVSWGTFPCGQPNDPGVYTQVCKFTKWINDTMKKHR

Paired box protein Pax-8, sequence (Q06710 whole entry): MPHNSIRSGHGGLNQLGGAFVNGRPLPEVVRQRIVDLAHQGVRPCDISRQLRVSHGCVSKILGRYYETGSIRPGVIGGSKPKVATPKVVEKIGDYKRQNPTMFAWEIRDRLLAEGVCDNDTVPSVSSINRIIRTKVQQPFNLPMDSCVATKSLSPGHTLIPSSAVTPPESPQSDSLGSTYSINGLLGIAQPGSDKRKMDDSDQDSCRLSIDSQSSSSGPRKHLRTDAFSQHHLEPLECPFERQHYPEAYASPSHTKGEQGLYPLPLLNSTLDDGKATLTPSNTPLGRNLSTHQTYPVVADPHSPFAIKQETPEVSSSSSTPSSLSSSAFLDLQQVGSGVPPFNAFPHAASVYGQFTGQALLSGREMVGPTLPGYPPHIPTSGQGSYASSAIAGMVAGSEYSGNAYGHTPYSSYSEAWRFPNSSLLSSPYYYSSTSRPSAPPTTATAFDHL
RNA-editing ligase 1, mitochondrial, sequence (P86926 whole entry): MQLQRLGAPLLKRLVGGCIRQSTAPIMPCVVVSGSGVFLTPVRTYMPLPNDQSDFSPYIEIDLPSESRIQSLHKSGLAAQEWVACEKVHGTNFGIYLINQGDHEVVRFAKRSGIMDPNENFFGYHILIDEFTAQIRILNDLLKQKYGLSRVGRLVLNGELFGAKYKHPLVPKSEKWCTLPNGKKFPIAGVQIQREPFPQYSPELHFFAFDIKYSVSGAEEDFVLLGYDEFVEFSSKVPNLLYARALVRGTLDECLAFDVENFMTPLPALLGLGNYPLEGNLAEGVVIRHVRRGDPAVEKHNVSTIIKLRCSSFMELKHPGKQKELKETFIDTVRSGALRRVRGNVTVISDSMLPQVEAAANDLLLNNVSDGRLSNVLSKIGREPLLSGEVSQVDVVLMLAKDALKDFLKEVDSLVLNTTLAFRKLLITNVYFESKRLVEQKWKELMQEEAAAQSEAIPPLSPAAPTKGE
Cytochrome P450 2C19, sequence (P33261 whole entry): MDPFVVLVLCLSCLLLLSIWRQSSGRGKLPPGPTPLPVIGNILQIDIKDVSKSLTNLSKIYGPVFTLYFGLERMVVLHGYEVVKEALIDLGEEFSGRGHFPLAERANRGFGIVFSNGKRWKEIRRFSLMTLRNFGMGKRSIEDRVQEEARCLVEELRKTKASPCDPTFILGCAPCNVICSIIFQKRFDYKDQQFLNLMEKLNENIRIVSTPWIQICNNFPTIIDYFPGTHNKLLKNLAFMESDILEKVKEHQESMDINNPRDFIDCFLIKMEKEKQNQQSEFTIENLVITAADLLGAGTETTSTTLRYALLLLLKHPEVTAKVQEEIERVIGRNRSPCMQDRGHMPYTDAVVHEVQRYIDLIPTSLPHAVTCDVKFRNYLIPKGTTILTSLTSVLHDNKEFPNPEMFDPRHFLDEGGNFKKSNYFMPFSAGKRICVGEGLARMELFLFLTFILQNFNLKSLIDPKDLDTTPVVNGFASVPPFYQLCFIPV
Cytochrome P450 2D6, sequence (P10635 whole entry): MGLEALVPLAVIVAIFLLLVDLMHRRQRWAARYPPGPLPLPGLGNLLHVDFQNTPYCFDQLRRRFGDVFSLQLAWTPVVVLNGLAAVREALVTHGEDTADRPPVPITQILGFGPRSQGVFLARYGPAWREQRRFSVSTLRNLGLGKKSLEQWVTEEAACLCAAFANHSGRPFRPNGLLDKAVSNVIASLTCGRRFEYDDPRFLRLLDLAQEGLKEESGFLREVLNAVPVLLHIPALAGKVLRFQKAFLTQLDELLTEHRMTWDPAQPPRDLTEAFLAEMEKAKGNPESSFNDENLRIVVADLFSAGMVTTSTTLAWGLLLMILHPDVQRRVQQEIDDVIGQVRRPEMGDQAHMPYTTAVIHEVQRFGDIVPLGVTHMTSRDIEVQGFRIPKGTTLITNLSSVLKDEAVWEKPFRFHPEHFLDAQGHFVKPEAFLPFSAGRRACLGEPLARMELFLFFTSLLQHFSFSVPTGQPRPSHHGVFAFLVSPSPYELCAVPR

O=C1/C(=C/c2ccccc2F)SC(=S)N1CC(=O)N1CCCCC1c1cccnc1 (stereo not drawn)
AC50 [1]: 17.9 µM (active) | EC50 (Protein RecA): 18.6 µM (active) | AC50 (Paired box protein Pax-8): 5.04 µM (active) | AC50 [2]: > 100 µM (inactive) | AC50 [3]: 43.5 µM (active) | AC50 [4]: 26.3 µM (active) | AC50 [5]: 38.3 µM (active) | AC50 [6]: 44.9 µM (active)

Fc1ccc(-c2csc(Nc3ccccn3)n2)cc1
IC50 (Protein skinhead-1): 22.8 µM (active) | IC50 [7]: > 67.6 µM (inactive) | EC50 [8]: > 67.6 µM (inactive)

Nc1nn2c(O)cc(-c3ccccc3)nc2c1N=Nc1ccccc1
EC50 [9]: > 60 µM (not active) | EC50 [10]: 1.67 µM (active) | EC50 [11]: 12.7 µM (active) | EC50 [12]: 10.5 µM (active) | EC50 (Streptococcus): 4.43 µM (active) | AC50 [13]: 1.62 µM (active) | AC50 (Cytochrome P450 2C19): 28.2 µM (inconclusive) | IC50 [14]: 19.9 µM (active) | AC50 (Cytochrome P450 2D6): 28.2 µM (inconclusive)

C=CCNCCOCCOc1ccc(Cl)cc1C(C)(C)C
IC50 [15]: > 96.6 µM (inactive)

COc1ccc(OC(=O)c2cccc([N+](=O)[O-])c2)c(C(=O)/C=C/c2cccs2)c1
CC50 [16]: 39.6 µM (active) | EC50 (Kallikrein-7): 46 µM (inactive)
